PubChem BioAssay (NCI)
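GI50 = concentration required for 50% inhibition of growth. Definition used: TGI = concentration required for complete inhibition of growth.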

Experiments:
Experiment in all cases: growth of human tumour cells (NCI), 384-well format
[1] = system: K-562 leukemia
[2] = system: BT-549 breast
[3] = system: PC-3 prostate
[4] = system: SNB-19 CNS
[5] = system: OVCAR-5 ovarian
[6] = system: HCT-116 colon
[7] = system: CCRF-CEM leukemia
[8] = system: SF-295 CNS
[9] = system: NCI/ADR-RES ovarian
[10] = system: HS 578T breast
[11] = system: MDA-MB-435 melanoma
[12] = system: NCI-H322M lung
[13] = system: MDA-MB-231 breast
[14] = system: UO-31 renal
[15] = system: TK-10 renal
[16] = system: MOLT-4 leukemia
[17] = system: SK-MEL-28 melanoma
[18] = system: M14 melanoma
[19] = system: OVCAR-4 ovarian
[20] = system: SF-268 CNS
[21] = system: SK-MEL-2 melanoma
[22] = system: HL-60(TB) leukemia
[23] = system: COLO 205 colon
[24] = system: SF-539 CNS
[25] = system: U251 glioblastoma
[26] = system: SN12C renal
[27] = system: A549 NSCLC
[28] = system: RPMI-8226 leukemia
[29] = system: HCC-2998 colon

Compound: C=CCn1c(=O)c2cnc(Nc3ccc(N4CCN(C)CC4)cc3)nc2n1-c1cccc(C(C)(C)O)n1
- TGI [1]: 347 nM
- GI50 [2]: 115 nM
- TGI [2]: 299 nM
- GI50 [3]: 724 nM
- TGI [3]: 21000 nM
- GI50 [4]: 502 nM
- TGI [4]: 15400 nM
- GI50 [5]: 596 nM
- TGI [5]: 6100 nM
- GI50 [6]: 308 nM
- TGI [6]: 2240 nM
- GI50 [7]: 69.9 nM
- TGI [7]: 197 nM
- GI50 [8]: 357 nM
- TGI [8]: 2260 nM
- GI50 [9]: 1810 nM
- TGI [9]: 4950 nM
- GI50 [10]: 154 nM
- TGI [10]: 529 nM
- GI50 [11]: 201 nM
- TGI [11]: 413 nM
- GI50 [12]: 233 nM
- TGI [12]: 935 nM
- GI50 [13]: 372 nM
- TGI [13]: 7330 nM
- GI50 [14]: 274 nM
- TGI [14]: 1250 nM
- GI50 [15]: 171 nM
- TGI [15]: 700 nM
- GI50 [16]: 29.9 nM
- TGI [16]: 103 nM
- GI50 [17]: 3440 nM
- TGI [17]: 17100 nM
- GI50 [18]: 51.4 nM
- TGI [18]: 246 nM
- GI50 [19]: 157 nM
- TGI [19]: 407 nM
- GI50 [20]: 559 nM
- TGI [20]: 10700 nM
- GI50 [21]: 160 nM
- TGI [21]: 393 nM
- GI50 [22]: 148 nM
- TGI [22]: 284 nM
- GI50 [23]: 294 nM
- TGI [23]: 829 nM
- GI50 [24]: 51 nM
- TGI [24]: 178 nM
- GI50 [25]: 419 nM
- TGI [25]: 6770 nM
- GI50 [26]: 311 nM
- TGI [26]: 2270 nM
- GI50 [27]: 1020 nM
- TGI [27]: 12800 nM
- GI50 [28]: 260 nM
- TGI [28]: 1120 nM
- GI50 [29]: 203 nM
- TGI [29]: 555 nM
